The values below come from patent US20210137857A1, “A COMPOSITION FOR TREATMENT OR PREVENTION OF A NEURODEGENERATIVE DISEASE” (NEILOS S.R.L., priority 2017, published 2021).

Series [1] is described as follows: Solubility tests on the test compounds. The class given is physicochemical.
The conditions of series [2]: human, in vivo; cited from earlier work.

On to Amyloid β peptide 1-42 [Peptide β1-42], for which the “Solubility test RESULT” value in series [1] is “POSITIVE”.
Consider `Nc1c2c(nc3ccccc13)CCCC2` [Tacrine], for which, in series [2], the “patients treated with increase in serum transaminases” value was “more than 50%”; the “patients with abdominal cramps, anorexia, nausea, vomiting and diarrhoea” value was “more than a third of patients”.
